Test results from article PMC11750102, “Inhibition of the anti-apoptotic protein BCL2 in EML4-ALK cell models as a second proposed therapeutic target for non-small cell lung cancer” (PLOS ONE, 2025).

Target: T1, Anaplastic lymphoma kinase (ALK) (Homo sapiens, UniProt Q9UM73)
T1 construct: purified recombinant GST-ALK
Test: ELISA-based in vitro kinase assay with peptide substrate
Format: biochemical

T1 sequence (Q9UM73 19-1620): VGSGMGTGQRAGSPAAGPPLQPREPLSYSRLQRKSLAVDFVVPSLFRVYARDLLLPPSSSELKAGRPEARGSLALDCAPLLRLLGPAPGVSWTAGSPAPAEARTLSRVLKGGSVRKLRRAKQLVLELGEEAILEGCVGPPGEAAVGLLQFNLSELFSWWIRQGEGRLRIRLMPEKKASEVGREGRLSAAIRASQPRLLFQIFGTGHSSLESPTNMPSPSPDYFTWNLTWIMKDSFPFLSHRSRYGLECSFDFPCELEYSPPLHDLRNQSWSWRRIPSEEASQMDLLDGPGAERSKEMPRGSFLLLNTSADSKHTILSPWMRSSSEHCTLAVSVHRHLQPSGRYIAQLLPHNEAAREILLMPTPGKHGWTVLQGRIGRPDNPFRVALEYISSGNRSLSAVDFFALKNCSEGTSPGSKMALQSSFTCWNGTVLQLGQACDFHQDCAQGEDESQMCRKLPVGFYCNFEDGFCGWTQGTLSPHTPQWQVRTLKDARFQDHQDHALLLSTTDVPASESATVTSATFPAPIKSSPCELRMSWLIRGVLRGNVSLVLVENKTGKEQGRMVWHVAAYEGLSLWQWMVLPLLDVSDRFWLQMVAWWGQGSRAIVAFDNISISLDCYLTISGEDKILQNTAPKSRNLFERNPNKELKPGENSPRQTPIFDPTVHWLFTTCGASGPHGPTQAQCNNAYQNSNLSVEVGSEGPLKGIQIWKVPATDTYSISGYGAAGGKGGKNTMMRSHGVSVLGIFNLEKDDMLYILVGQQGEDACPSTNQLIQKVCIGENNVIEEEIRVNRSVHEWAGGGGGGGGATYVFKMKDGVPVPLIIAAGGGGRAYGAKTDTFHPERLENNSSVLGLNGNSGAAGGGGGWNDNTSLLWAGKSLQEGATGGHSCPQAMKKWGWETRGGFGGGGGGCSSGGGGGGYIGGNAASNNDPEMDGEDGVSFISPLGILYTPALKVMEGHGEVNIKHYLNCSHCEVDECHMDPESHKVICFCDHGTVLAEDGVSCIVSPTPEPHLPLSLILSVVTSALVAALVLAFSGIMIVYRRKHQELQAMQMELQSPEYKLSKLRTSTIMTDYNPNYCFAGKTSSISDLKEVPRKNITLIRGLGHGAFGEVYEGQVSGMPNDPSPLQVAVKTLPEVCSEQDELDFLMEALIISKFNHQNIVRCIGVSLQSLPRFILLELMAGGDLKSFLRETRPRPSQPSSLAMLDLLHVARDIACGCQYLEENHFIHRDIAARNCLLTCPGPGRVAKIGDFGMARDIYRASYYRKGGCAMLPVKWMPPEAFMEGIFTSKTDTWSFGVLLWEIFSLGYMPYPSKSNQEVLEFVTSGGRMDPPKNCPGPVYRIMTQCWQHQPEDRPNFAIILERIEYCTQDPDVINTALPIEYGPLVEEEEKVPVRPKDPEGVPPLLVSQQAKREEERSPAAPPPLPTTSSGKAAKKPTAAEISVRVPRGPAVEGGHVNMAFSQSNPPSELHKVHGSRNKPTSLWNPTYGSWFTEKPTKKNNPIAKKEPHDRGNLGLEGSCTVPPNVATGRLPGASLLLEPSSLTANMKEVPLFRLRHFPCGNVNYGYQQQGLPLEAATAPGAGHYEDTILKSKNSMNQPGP

IC50: 5.5 µM
SMILES: CC1(C)CCC(CN2CCN(c3ccc(C(=O)NS(=O)(=O)c4ccc(NCC5CCOCC5)c([N+](=O)[O-])c4)c(Oc4cnc5[nH]ccc5c4)c3)CC2)=C(c2ccc(Cl)cc2)C1 [ABT-199]
